Molecular target: T1, ΔF508-CFTR (Homo sapiens, UniProt P13569, DEL508-508)
T1 construct: Primary lung epithelial cells homozygous for the Cystic Fibrosis-causing ΔF508 mutation were differentiated for a minimum of 4 weeks; endogenous in cells; host or cells: primary lung epithelial cells (hBE) homozygous for ΔF508, differentiated at an air-liquid interface
Assay: hBE equivalent current (Ieq) assay: AUC of equivalent chloride current after forskolin/VX-770 in primary lung epithelial cells homozygous for ΔF508
Type: cell-based
Conditions: relative to CFTR amplifier (Compound A)+VX-809 (3 uM), compound at 10 uM and Compound A at 3 uM, 24 h treatment
Method in brief: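 ΔF508/ΔF508 primary human bronchial epithelia, differentiated ≥4 weeks at air-liquid interface, treated basolaterally with compound for 24 h at 37 °C. Transepithelial voltage and conductance by 24-channel current clamp at 36 °C: benzamil, then forskolin plus VX-770 for 27 min, then bumetanide; AUC of equivalent chloride current over vehicle.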

T1 sequence (P13569 with tags, fused parts or gaps DEL508-508): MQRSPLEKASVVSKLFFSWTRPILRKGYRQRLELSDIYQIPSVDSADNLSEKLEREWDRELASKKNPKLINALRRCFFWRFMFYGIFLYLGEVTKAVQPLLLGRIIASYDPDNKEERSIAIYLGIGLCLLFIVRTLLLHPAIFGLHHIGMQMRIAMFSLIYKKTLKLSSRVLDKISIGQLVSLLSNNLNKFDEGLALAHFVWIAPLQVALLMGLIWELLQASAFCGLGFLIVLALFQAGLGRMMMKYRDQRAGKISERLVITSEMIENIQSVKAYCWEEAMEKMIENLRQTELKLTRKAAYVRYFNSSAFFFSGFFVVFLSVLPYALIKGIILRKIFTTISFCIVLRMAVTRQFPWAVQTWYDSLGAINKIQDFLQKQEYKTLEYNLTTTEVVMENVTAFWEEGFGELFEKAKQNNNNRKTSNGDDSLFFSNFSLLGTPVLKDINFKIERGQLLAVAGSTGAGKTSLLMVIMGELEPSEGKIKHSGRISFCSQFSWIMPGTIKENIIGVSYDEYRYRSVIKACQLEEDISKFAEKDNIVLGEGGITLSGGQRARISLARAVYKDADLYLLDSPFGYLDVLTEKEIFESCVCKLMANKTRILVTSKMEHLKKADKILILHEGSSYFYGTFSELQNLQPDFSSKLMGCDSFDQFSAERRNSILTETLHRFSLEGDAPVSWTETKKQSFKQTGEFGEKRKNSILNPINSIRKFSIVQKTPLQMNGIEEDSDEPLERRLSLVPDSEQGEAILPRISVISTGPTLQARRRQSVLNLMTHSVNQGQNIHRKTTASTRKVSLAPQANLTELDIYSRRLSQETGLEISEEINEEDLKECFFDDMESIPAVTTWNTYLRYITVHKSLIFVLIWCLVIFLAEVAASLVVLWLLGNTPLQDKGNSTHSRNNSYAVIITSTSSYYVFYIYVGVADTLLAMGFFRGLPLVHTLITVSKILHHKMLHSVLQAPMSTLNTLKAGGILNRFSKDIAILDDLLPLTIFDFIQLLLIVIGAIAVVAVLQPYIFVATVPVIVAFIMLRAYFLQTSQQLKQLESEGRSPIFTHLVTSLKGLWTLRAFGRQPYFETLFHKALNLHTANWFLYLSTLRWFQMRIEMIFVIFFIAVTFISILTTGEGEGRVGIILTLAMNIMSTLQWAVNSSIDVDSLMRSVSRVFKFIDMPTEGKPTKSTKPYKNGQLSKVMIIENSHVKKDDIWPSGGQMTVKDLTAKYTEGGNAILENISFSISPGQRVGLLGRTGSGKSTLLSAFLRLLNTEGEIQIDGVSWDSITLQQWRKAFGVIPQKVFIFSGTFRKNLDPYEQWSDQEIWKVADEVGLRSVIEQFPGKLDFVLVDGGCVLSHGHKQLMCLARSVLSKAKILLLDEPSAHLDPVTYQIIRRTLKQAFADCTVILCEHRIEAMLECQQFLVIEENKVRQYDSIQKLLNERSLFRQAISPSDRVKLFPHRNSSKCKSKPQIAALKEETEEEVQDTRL

Row | SMILES | Activity
1 | Cc1c(-c2cc(C(=O)[O-])c3c(OC[C@H]4C[C@](C)(O)C4)ccc(C)c3n2)oc2ccccc12.[Na+] [Compound 375] | ++ (activity>50% of CFTR amplifier+VX-809 (3 uM) with compound at 10 uM and Compound A at 3 uM)
2 | Cc1c(-c2cc(C(=O)[O-])c3c(OC[C@H]4CC[C@@](C)(O)CC4)ccc(C)c3n2)oc2ccccc12.[Na+] [Compound 376] | ++ (activity>50% of CFTR amplifier+VX-809 (3 uM) with compound at 10 uM and Compound A at 3 uM)
3 | Cc1c(-c2cc(C(=O)[O-])c3c(OC[C@H]4CC[C@](C)(O)CC4)ccc(C)c3n2)oc2ccccc12.[Na+] [Compound 377] | ++ (activity>50% of CFTR amplifier+VX-809 (3 uM) with compound at 10 uM and Compound A at 3 uM)
4 | Cc1c(-c2cc(C(=O)[O-])c3c(OCC4CCC5(CC4)COC5)ccc(C)c3n2)sc2ccccc12.[Na+] [Compound 384] | ++ (activity>50% of CFTR amplifier+VX-809 (3 uM) with compound at 10 uM and Compound A at 3 uM)
5 | CO[C@]1(C)CC[C@H](COc2ccc(C)c3nc(-c4oc5ccccc5c4C)cc(C(=O)[O-])c23)CC1.[Na+] [Compound 387] | ++ (activity>50% of CFTR amplifier+VX-809 (3 uM) with compound at 10 uM and Compound A at 3 uM)
6 | CO[C@]1(C)CC[C@@H](COc2ccc(C)c3nc(-c4oc5ccccc5c4C)cc(C(=O)[O-])c23)CC1.[Na+] [Compound 388] | ++ (activity>50% of CFTR amplifier+VX-809 (3 uM) with compound at 10 uM and Compound A at 3 uM)
7 | Cc1ccc(OC(C)c2ccccc2)c2c(C(=O)[O-])cc(-c3nc4ccccc4n3C)nc12.[Na+] (stereo not shown) [Compound 407] | + (activity<50% of an CFTR amplifier (Compound A)+VX-809 (3 uM) with compound at 10 uM and Compound A at 3 uM)
